Numbers after ± are expanded uncertainties.
Conditions: 100 kPa, Liquid, Vibrating tube method

Row | Structure (SMILES) | mass density (293.15 K) [kg/m3] | mass density (303.15 K) [kg/m3] | mass density (313.15 K) [kg/m3] | mass density (323.15 K) [kg/m3] | mass density (333.15 K) [kg/m3]
1 | CCOCCOCCOC(C)=O [2-(2-ethoxyethoxy)ethyl acetate] | 1009.46 ± 0.25 | 999.19 ± 0.24 | 988.92 ± 0.24 | 978.66 ± 0.24 | 968.38 ± 0.24
2 | CCCCOCCOC(C)=O [2-butoxyethyl acetate] | 940.7 ± 0.77 | 930.89 ± 0.76 | 921.05 ± 0.75 | 911.18 ± 0.74 | 901.29 ± 0.73
